Results published in US20230295162A1 (EÖTVÖS LORÁND TUDOMÁNYEGYETEM, priority 2020, published 2023).
Where two headings read alike, the source gives them in different places.

Experiments:
[1] = test system: EBC-1 (lung, squamous cell carcinoma) cells; assay: Cell viability assay, CellTiter-Glo (Example 21); type: cell-based, human; conditions: 72 h treatment
Procedure: (§1) Effect of the selected compounds on cancer cell viability was measured via CellTiter-Glo® luminescent cell viability assay (Promega, Madison, WI, USA) according to the manufacturer's instructions. Cells were plated onto a flat-bottomed, white 96 well plate (BRANDplates®, cat. no.: 781965). Density of the seeded cells was optimized based on their size and growth rate, as the follows: Panc-1:750 cells/well; DU 145, PC-3, Capan-1, MIA PaCa-2, SCC-25, FaDu and EBC-1: 1000 cells/well; LNCaP, Detroit 562, MDA-MB-231 and MDA-MB-453 1500 cells/well. […] After the treatment, the luminescence signal was recorded using a microplate reader (BioTek Synergy 2 Multi-Mode Reader, BioTek, Winooski, VT, USA). Dose-response curves were generated by GraphPad Prism 8.4.2. software using a non-linear regression model (variable slope, four parameters), (see FIGS. 12-51).

[2] = test system: PC-3 (prostate, adenocarcinoma) cells; assay: Cell viability assay, CellTiter-Glo (Example 21); type: cell-based, human; conditions: 72 h treatment
Procedure: as §1

[3] = test system: Capan-1 (pancreas, adenocarcinoma) cells; assay: Cell viability assay, CellTiter-Glo (Example 21); type: cell-based, human; conditions: 72 h treatment
Procedure: as §1

[4] = test system: LNCaP (prostate, carcinoma) cells; assay: Cell viability assay, CellTiter-Glo (Example 21); type: cell-based, human; conditions: 72 h
Procedure: as §1

[5] = test system: Detroit 562 (pharynx, carcinoma) cells; assay: Cell viability assay, CellTiter-Glo (Example 21); type: cell-based, human; conditions: 72 h treatment
Procedure: as §1

[6] = test system: SCC-25 (tongue, squamous cell carcinoma) cells; assay: Cell viability assay, CellTiter-Glo (Example 21); type: cell-based, human; conditions: 72 h treatment
Procedure: as §1

[7] = test system: MDA-MB-453 (breast, carcinoma) cells; assay: Cell viability assay, CellTiter-Glo (Example 21); type: cell-based, human; conditions: 72 h treatment
Procedure: as §1

[8] = test system: MDA-MB-231 (breast, adenocarcinoma) cells; assay: Cell viability assay, CellTiter-Glo (Example 21); type: cell-based, human; conditions: 72 h treatment
Procedure: as §1

[9] = test system: DU 145 (prostate, carcinoma) cells; assay: Cell viability assay, CellTiter-Glo (Example 21); type: cell-based, human; conditions: 72 h
Procedure: as §1

[10] = test system: Panc-1 (pancreas, carcinoma) cells; assay: Cell viability assay, CellTiter-Glo (Example 21); type: cell-based, human; conditions: 72 h treatment
Procedure: as §1

[11] = test system: FaDu (pharynx, squamous cell carcinoma) cells; assay: Cell viability assay, CellTiter-Glo (Example 21); type: cell-based, human; conditions: 72 h treatment
Procedure: as §1

[12] = test system: MIA PaCa-2 (pancreas, carcinoma) cells; assay: Cell viability assay, CellTiter-Glo (Example 21); type: cell-based, human; conditions: 72 h treatment
Procedure: as §1

[13] = test system: PANC-1 (human pancreatic carcinoma) cells; assay: Impedance-based viability assay (xCELLigence SP), long treatment; type: cell-based; conditions: 72 h, read-out: cytotoxicity expressed in IC50, PANC-1
Text: (Gibco®/Invitrogen Corporation, New York, NY, USA).
Data obtained from each experiment represent mathematical averages.

[14] = test system: H2228 lung cancer cell line; assay: High-throughput screening, CellTiter-Glo cell viability assay at 100 nM; type: cell-based, human; conditions: Homo sapiens, NCI-H2228, HTS, compounds at 100 nM, 72 h, read-out: cytotoxicity expressed in IC50, H2228 (results of High throughput screening)
[15] = test system: EBC-1 lung cancer cell line; assay: as above; type: cell-based, human; conditions: Homo sapiens, EBC-1, HTS, compounds at 100 nM, 72 h, read-out: cytotoxicity expressed in IC50, EBC-1 (results of High throughput screening)
[16] = test system: Panc-1 human cell line; assay: Cytotoxicity on Panc-1, xCELLigence SP, IC50 after 24 h, 48 h, 72 h and 96 h (Example 22)

O=C1C2=C(CCN(Cc3cc(F)cc(F)c3)C2)N2CCN=C2N1Cc1ccc(F)cc1 [I/7, 4-(4-Fluorobenzyl)-7-(3,5-difluorobenzyl)-2,4,6,7,8,9-hexahydroimidazo[1,2-a]pyrido[3,4-e]pyrimidin-5(1H)-one]
EBC-1 (lung, squamous cell carcinoma) cell viability (% of control) ([1]; 3.7 nM): 79.8 ± 4.1 % of control
EBC-1 (lung, squamous cell carcinoma) cell viability (% of control) ([1]; 11.1 nM): 25.6 ± 0.1 % of control
EBC-1 (lung, squamous cell carcinoma) cell viability (% of control) ([1]; 100 nM): 23.2 ± 0.9 % of control
EBC-1 (lung, squamous cell carcinoma) cell viability (% of control) ([1]; 300 nM): 23.8 ± 0.6 % of control
PC-3 (prostate, adenocarcinoma) cell viability (% of control) ([2]; 3.7 nM): 82.1 ± 1.6 % of control
PC-3 (prostate, adenocarcinoma) cell viability (% of control) ([2]; 11.1 nM): 38.9 ± 2.1 % of control
PC-3 (prostate, adenocarcinoma) cell viability (% of control) ([2]; 100 nM): 34.6 ± 3.0 % of control
PC-3 (prostate, adenocarcinoma) cell viability (% of control) ([2]; 300 nM): 34.3 ± 3.4 % of control
Capan-1 (pancreas, adenocarcinoma) cell viability (% of control) ([3]; 3.7 nM): 101.9 ± 3.8 % of control
Capan-1 (pancreas, adenocarcinoma) cell viability (% of control) ([3]; 11.1 nM): 46.0 ± 7.5 % of control
Capan-1 (pancreas, adenocarcinoma) cell viability (% of control) ([3]; 100 nM): 36.1 ± 2.8 % of control
Capan-1 (pancreas, adenocarcinoma) cell viability (% of control) ([3]; 300 nM): 35.5 ± 3.3 % of control
LNCaP cell viability ([4]; 3.7 nM): 45.6 ± 7.0 % of control
LNCaP cell viability ([4]; 11.1 nM): 17.2 ± 1.9 % of control
LNCaP cell viability ([4]; 100 nM): 13.1 ± 0.8 % of control
LNCaP cell viability ([4]; 300 nM): 13.9 ± 1.0 % of control
Detroit 562 (pharynx, carcinoma) cell viability (% of control) ([5]; 3.7 nM): 35.1 ± 5.8 % of control
Detroit 562 (pharynx, carcinoma) cell viability (% of control) ([5]; 11.1 nM): 28.4 ± 4.2 % of control
Detroit 562 (pharynx, carcinoma) cell viability (% of control) ([5]; 100 nM): 28.6 ± 13.6 % of control
Detroit 562 (pharynx, carcinoma) cell viability (% of control) ([5]; 300 nM): 33.0 ± 4.8 % of control
SCC-25 (tongue, squamous cell carcinoma) cell viability (% of control) ([6]; 3.7 nM): 88.7 ± 5.6 % of control
SCC-25 (tongue, squamous cell carcinoma) cell viability (% of control) ([6]; 11.1 nM): 45.1 ± 4.7 % of control
SCC-25 (tongue, squamous cell carcinoma) cell viability (% of control) ([6]; 100 nM): 35.1 ± 2.2 % of control
SCC-25 (tongue, squamous cell carcinoma) cell viability (% of control) ([6]; 300 nM): 39.7 ± 2.7 % of control
MDA-MB-453 (breast, carcinoma) cell viability (% of control) ([7]; 3.7 nM): 55.8 ± 6.5 % of control
MDA-MB-453 (breast, carcinoma) cell viability (% of control) ([7]; 11.1 nM): 35.8 ± 1.3 % of control
MDA-MB-453 (breast, carcinoma) cell viability (% of control) ([7]; 100 nM): 33.1 ± 1.1 % of control
MDA-MB-453 (breast, carcinoma) cell viability (% of control) ([7]; 300 nM): 31.6 ± 0.9 % of control
MDA-MB-231 (breast, adenocarcinoma) cell viability (% of control) ([8]; 3.7 nM): 99.6 ± 2.2 % of control
MDA-MB-231 (breast, adenocarcinoma) cell viability (% of control) ([8]; 11.1 nM): 63.6 ± 4.4 % of control
MDA-MB-231 (breast, adenocarcinoma) cell viability (% of control) ([8]; 100 nM): 58.6 ± 3.0 % of control
MDA-MB-231 (breast, adenocarcinoma) cell viability (% of control) ([8]; 300 nM): 59.4 ± 3.0 % of control
DU 145 cell viability ([9]; 3.7 nM): 64.1 ± 8.0 % of control
DU 145 cell viability ([9]; 11.1 nM): 7.5 ± 0.6 % of control
DU 145 cell viability ([9]; 100 nM): 7.2 ± 2.3 % of control
DU 145 cell viability ([9]; 300 nM): 8.5 ± 2.4 % of control
Panc-1 (pancreas, carcinoma) cell viability (% of control) ([10]; 3.7 nM): 108.6 ± 7.6 % of control
Panc-1 (pancreas, carcinoma) cell viability (% of control) ([10]; 11.1 nM): 61.1 ± 3.4 % of control
Panc-1 (pancreas, carcinoma) cell viability (% of control) ([10]; 100 nM): 60.0 ± 3.6 % of control
Panc-1 (pancreas, carcinoma) cell viability (% of control) ([10]; 300 nM): 53.5 ± 0.6 % of control
FaDu (pharynx, squamous cell carcinoma) cell viability (% of control) ([11]; 3.7 nM): 80.1 ± 13.3 % of control
FaDu (pharynx, squamous cell carcinoma) cell viability (% of control) ([11]; 11.1 nM): 29.1 ± 5.6 % of control
FaDu (pharynx, squamous cell carcinoma) cell viability (% of control) ([11]; 100 nM): 24.0 ± 3.8 % of control
FaDu (pharynx, squamous cell carcinoma) cell viability (% of control) ([11]; 300 nM): 26.1 ± 4.5 % of control
MIA PaCa-2 (pancreas, carcinoma) cell viability (% of control) ([12]; 3.7 nM): 87.4 ± 12.0 % of control
MIA PaCa-2 (pancreas, carcinoma) cell viability (% of control) ([12]; 11.1 nM): 23.1 ± 6.3 % of control
MIA PaCa-2 (pancreas, carcinoma) cell viability (% of control) ([12]; 100 nM): 18.5 ± 6.8 % of control
MIA PaCa-2 (pancreas, carcinoma) cell viability (% of control) ([12]; 300 nM): 19.8 ± 8.6 % of control
IC50 [13]: 8 nM
IC50 [14]: < 100 nM
IC50 [15]: < 100 nM
IC50 ([16]; PANC-1, 72 h, read-out: IC50 (72 h) [nM]): 27.3 ± 15.4 nM
IC50 ([16]; PANC-1, 96 h, read-out: IC50 (96 h) [nM]): 22.1 ± 5.98 nM
